Activity calls are given as the source filed them. The rule behind the calls is not given here.
Key:
[1] = test system: HeLa; assay: Cytotoxicity against human HeLa cells after 48 hrs by MTT assay; format: functional, cell-based
[2] = test system: A549; assay: Cytotoxicity against human A549 cells after 48 hrs by MTT assay; format: functional, cell-based; settings: A549, 48 h
[3] = test system: WI-38; assay: Cytotoxicity against human WI38 cells after 48 hrs by MTT assay; format: cell-based; settings: WI-38, 48 h
[4] = test system: HepG2; assay: Cytotoxicity against human HepG2 cells after 48 hrs by MTT assay; format: functional, cell-based; settings: HepG2, 48 h
[5] = test system: HCT-8; assay: Cytotoxicity against human HCT8 cells after 48 hrs by MTT assay; format: functional, cell-based; settings: HCT-8, 48 h
[6] = test system: HeLa; assay: Induction of microtubule disruption in human HeLa cells assessed as nuclear condensation after 6 hrs by DAPI staining based immunofluorescence microscopic analysis; format: cell-based
[7] = test system: HeLa; assay: Induction of microtubule disruption in human HeLa cells assessed as round microtubule after 6 hrs by DAPI staining based immunofluorescence microscopic analysis; format: cell-based
[8] = test system: HeLa; assay: Induction of apoptosis in human HeLa cells assessed as increase in intracellular reactive oxygen species level after 24 hrs by DCFH-DA staining based laser confocal microscopic analysis; format: functional, cell-based
[9] = test system: HeLa; assay: Induction of microtubule disruption in human HeLa cells assessed as short microtubule after 6 hrs by DAPI staining based immunofluorescence microscopic analysis; format: cell-based
[10] = test system: HeLa; assay: Cell cycel arrest in human HeLa cells assessed as increase in accumulation at G2/M phase after 24 hrs by propidium iodide staining based assay; format: functional
[11] = target: Cyclin-dependent kinase 1 (Homo sapiens) (UniProt P06493); assay: Reduction in phosphorylated CDC2 level in human HeLa cells after 24 hrs by Western blot analysis; format: cell-based
[12] = test system: HeLa; assay: Induction of microtubule disruption in human HeLa cells assessed as nuclear fragmentation after 6 hrs by DAPI staining based immunofluorescence microscopic analysis; format: cell-based
[13] = test system: HeLa; assay: Inhibition of tubulin polymerization in human HeLa cells assessed as reduction in polymerized tubulin expression at 0.5 uM after 24 hrs by chemiluminescence assay; format: cell-based
[14] = test system: HeLa; assay: Induction of apoptosis in human HeLa cells assessed as upregulation of p53 expression by Western blot analysis; format: functional, cell-based
[15] = test system: HeLa; assay: Induction of microtubule disruption in human HeLa cells assessed as cell shrinkage after 6 hrs by DAPI staining based immunofluorescence microscopic analysis
[16] = test system: HeLa; assay: Induction of apoptosis in human HeLa cells assessed as nuclear fragmentation at 0.1 to 1 uM after 24 hrs by Hoechst 33258 staining based fluorescence microscopic analysis; format: functional, cell-based
[17] = test system: HeLa; assay: Upregulation of cyclin B1 expression in human HeLa cells after 24 hrs by Western blot analysis; format: functional, cell-based
[18] = test system: HeLa; assay: Induction of microtubule disruption in human HeLa cells assessed as dense microtubule after 6 hrs by DAPI staining based immunofluorescence microscopic analysis; format: cell-based
[19] = test system: HeLa; assay: Induction of apoptosis in human HeLa cells assessed as morphological changes at 0.1 to 1 uM after 24 hrs by Hoechst 33258 staining based fluorescence microscopic analysis; format: functional, cell-based
[20] = test system: HeLa; assay: Upregulation of CDC2 expression in human HeLa cells after 24 hrs by Western blot analysis; format: functional, cell-based
[21] = test system: HeLa; assay: Cell cycel arrest in human HeLa cells assessed as decrease in accumulation at G1 phase after 24 hrs by propidium iodide staining based assay; format: functional
[22] = test system: HeLa; assay: Inhibition of tubulin polymerization in human HeLa cells assessed as reduction in polymerized tubulin expression at 2 uM after 24 hrs by chemiluminescence assay; format: cell-based
[23] = test system: HeLa; assay: Induction of microtubule disruption in human HeLa cells assessed as round microtubule at 1 uM after 6 hrs by DAPI staining based immunofluorescence microscopic analysis; format: cell-based
[24] = test system: HeLa; assay: Induction of microtubule disruption in human HeLa cells assessed as short microtubule at 1 uM after 6 hrs by DAPI staining based immunofluorescence microscopic analysis; format: cell-based
[25] = test system: HeLa; assay: Induction of microtubule disruption in human HeLa cells assessed as dense microtubule at 1 uM after 6 hrs by DAPI staining based immunofluorescence microscopic analysis; format: cell-based

Cyclin-dependent kinase 1 (Homo sapiens), sequence (P06493 whole entry, looked up, the tested form may be a part): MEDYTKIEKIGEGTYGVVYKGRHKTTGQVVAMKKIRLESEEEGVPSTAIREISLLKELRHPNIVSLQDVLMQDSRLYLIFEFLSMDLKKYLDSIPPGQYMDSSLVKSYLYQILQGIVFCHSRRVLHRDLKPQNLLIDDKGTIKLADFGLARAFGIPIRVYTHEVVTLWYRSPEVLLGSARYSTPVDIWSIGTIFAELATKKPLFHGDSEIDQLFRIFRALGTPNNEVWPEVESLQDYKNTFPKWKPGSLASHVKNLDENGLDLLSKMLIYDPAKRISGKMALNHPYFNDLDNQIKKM

SMILES	IC50 [1]	IC50 [2]	IC50 [3]	IC50 [4]	IC50 [5]	further results
CCCNS(=O)(=O)NC(=O)O[C@H]1c2cc3c(cc2[C@@H](c2cc(OC)c(OC)c(OC)c2)[C@H]2C(=O)OC[C@@H]21)OCO3	1.9 µM	9 µM	63.3 µM	2.8 µM	23.2 µM	–
COc1cc([C@@H]2c3cc4c(cc3[C@H](OC(=O)NS(=O)(=O)N3CCOCC3)[C@H]3COC(=O)[C@H]23)OCO4)cc(OC)c1OC	0.5 µM	1.5 µM	109 µM	0.7 µM	16.5 µM	Activity [6]: Dose-dependent effect; Activity [7]: Dose-dependent effect; Activity [8]: Dose-dependent effect; Activity [9]: Dose-dependent effect; Activity [10]: Dose-dependent effect; Activity [11]: Dose-dependent effect; Activity [12]: Dose-dependent effect; inhibition [13]: Active; Activity [14]: Dose-dependent effect; Activity [15]: Dose-dependent effect; Activity [16]: Active; Activity [17]: Dose-dependent effect; Activity [18]: Dose-dependent effect; Activity [19]: Active; Activity [20]: Dose-dependent effect; Activity [21]: Dose-dependent effect; inhibition [22]: Active
COc1cc([C@@H]2c3cc4c(cc3[C@@H](O[C@@H]3O[C@@H]5CO[C@@H](C)O[C@H]5[C@H](O)[C@H]3O)[C@H]3COC(=O)[C@H]23)OCO4)cc(OC)c1O [ETOPOSIDE]	24.9 µM	–	46.9 µM	13.4 µM	26.3 µM	–
COc1cc([C@@H]2c3cc4c(cc3[C@H](OC(=O)NS(=O)(=O)N3CCN(c5ccc([N+](=O)[O-])cc5)CC3)[C@H]3COC(=O)[C@H]23)OCO4)cc(OC)c1OC	35.6 µM	13.7 µM	77.2 µM	6 µM	> 100 µM	–
COc1cc([C@@H]2c3cc4c(cc3[C@H](OC(=O)NS(=O)(=O)N3CCN(c5ccc(F)cc5)CC3)[C@H]3COC(=O)[C@H]23)OCO4)cc(OC)c1OC	7.6 µM	12.2 µM	44.3 µM	–	–	–
COc1cc([C@@H]2c3cc4c(cc3[C@H](OC(=O)NS(=O)(=O)NC3CCN(C)CC3)[C@H]3COC(=O)[C@H]23)OCO4)cc(OC)c1OC	4.1 µM	3.3 µM	68.7 µM	15.6 µM	96 µM	–
COc1cc([C@@H]2c3cc4c(cc3[C@H](OC(=O)NS(=O)(=O)NC3CC3)[C@H]3COC(=O)[C@H]23)OCO4)cc(OC)c1OC	3.9 µM	4.3 µM	65.3 µM	8.8 µM	45 µM	–
COc1cc2c(c(OC)c1OC)-c1ccc(OC)c(=O)cc1[C@@H](NC(C)=O)CC2	–	–	–	–	–	Activity [23]: Active; Activity [24]: Active; Activity [25]: Active
COc1cc([C@@H]2c3cc4c(cc3[C@H](OC(=O)NS(=O)(=O)N3CCN(C5CCCC5)CC3)[C@H]3COC(=O)[C@H]23)OCO4)cc(OC)c1OC	57.6 µM	9.8 µM	47.9 µM	–	–	–
COc1cc([C@@H]2c3cc4c(cc3[C@H](OC(=O)NS(=O)(=O)N3CCN(C)CC3)[C@H]3COC(=O)[C@H]23)OCO4)cc(OC)c1OC	0.4 µM	5.9 µM	86.5 µM	1.5 µM	> 100 µM	–
COc1cc([C@@H]2c3cc4c(cc3[C@H](OC(=O)NS(=O)(=O)NC3CCCCC3)[C@H]3COC(=O)[C@H]23)OCO4)cc(OC)c1OC	4.6 µM	2.6 µM	78.5 µM	3.7 µM	20.1 µM	–
CC(=O)O[C@H]1C(=O)[C@@]2(C)[C@H]([C@H](OC(=O)c3ccccc3)[C@]3(O)C[C@H](OC(=O)[C@H](O)[C@@H](NC(=O)c4ccccc4)c4ccccc4)C(C)=C1C3(C)C)[C@]1(OC(C)=O)CO[C@@H]1C[C@@H]2O	–	–	–	–	–	inhibition [22]: inactive

— ChEMBL document CHEMBL4033698, “One-pot synthesis and biological evaluation of N-(aminosulfonyl)-4-podophyllotoxin carbamates as potential anticancer agents” (Bioorg Med Chem Lett, 2017)
